Reference: US5654267A, “Cooperative combinations of ligands contained within a matrix” (La Jolla Cancer Research Center, priority 1994, dated 1997)

Experiments:
[1] = tested on: Rat-1 cells; assay: DNA synthesis ([3H]-thymidine incorporation) in EGF-stimulated Rat-1 cells; assay type: cell-based; conditions: 40 ng/ml EGF, 20 μg/ml coating, FIG. 6
Description: Rat-1 cells were plated at 1×10^5 cells/well on 24-well plates that had been coated for 12 hours either with 20 μg/ml of vitronectin or 20 μg/ml of type I collagen. Cells were incubated for 36 hours in Dulbecco's modified Eagle's medium containing 0.1% bovine serum albumin followed by addition of buffer or 40 ng/ml EGF (Boehringer Mannheim). After 15 hours, the cells were pulse-labeled with 1 μCi/ml [^3 H]-thymidine (specific activity 6.7 Ci/mmol, DuPont NEN) for 3 hours and thymidine incorporation into DNA was determined by liquid scintillation counting.
After being serum-starved, the cells were treated with buffer only (samples 1 and 2) or with EGF (samples 3 and 4). Data points are the average of triplicate samples.

[2] = tested on: NRK cells; assay: DNA synthesis in IGF-1-treated NRK cells on vitronectin, collagen or laminin; assay type: cell-based; conditions: data not shown
[3] = tested on: human foreskin fibroblasts; assay: DNA synthesis ([3H]-thymidine incorporation) in PDGF-stimulated human foreskin fibroblasts; assay type: cell-based; conditions: 40 ng/ml PDGF-BB, 20 μg/ml coating, FIG. 5 column 3 vs 4
Description: Human foreskin fibroblasts (Coriell) were plated at 1×10^5 cells/well on 24-well plates that had been coated for 12 hours either with 20 μg/ml of vitronectin of 20 μg/ml of type I collagen. Cells were incubated for 36 hours in Dulbecco's modified Eagle's medium containing 0.1% bovine serum albumin followed by addition of buffer or 40 ng/ml PDGF-BB (Boehringer Mannheim). After 15 hours, the cells were pulse-labeled with 1 μCi/ml [^3 H]-thymidine (specific activity 6.7 Ci/mmol, DuPont NEN) for 3 hours and thymidine incorporation into DNA was determined by liquid scintillation counting.
Cells were serum-starved and treated with buffer only (samples 1 and 2) or with PDGF (samples 3 and 4). Data points are the average of duplicate samples.

[4] = tested on: FG-B cells (αv β3 integrin positive human pancreatic carcinoma cells); assay: DNA synthesis ([3H]-thymidine incorporation) in insulin-stimulated FG-B cells on vitronectin or type I collagen; assay type: cell-based; conditions: 100 mM insulin, plates coated with 10 μg/ml vitronectin or type I collagen, FIG. 4 columns 9, 10
Description: (§1) FG-B (columns 1, 2, 5, 6, 9, and 10) and FG-C cells (columns 3, 4, 7, 8, 11, and 12) were plated at 1×10^5 cells/well on 24-well plates that had been coated either with vitronectin (dark column) or type I collagen (open column). Plates were coated with 10 μg/ml of either vitronectin or type I collagen for 12 hours followed by blocking with 0.5% bovine serum albumin for 2 hours. Cells were incubated for 36 hours in DMEM containing 10% FCS (columns 1 to 4), or in DMEM containing 0.1% BSA followed by addition of buffer (columns 5 to 8) or 100 mM insulin (columns 9 to 12). FCS is used as a control because it provides maximal stimulation owing to the presence of high levels of growth factors and adhesion proteins.
(§2) After 15 hours, the cells were pulse-labeled with 1 μCi/ml [^3 H]-thymidine (specific activity 6.7 Ci/mmol, DuPont NEN) for 3 hours and thymidine incorporation into DNA was determined by trichloroacetic acid precipitation and liquid scintillation counting. Error bars indicate the standard error of triplicate determinations.

[5] = tested on: FG-C cells (αv β3 integrin negative human pancreatic carcinoma cells); assay: DNA synthesis ([3H]-thymidine incorporation) in insulin-stimulated FG-C cells on vitronectin or type I collagen; assay type: cell-based; conditions: lack αv β3, FIG. 4 columns 3, 4, 7, 8, 11, 12
Description: as §1, §2

[6] = tested on: αv β3 integrin-IRS-1 association; assay: Association of IRS-1 with the vitronectin receptor (αv β3) in insulin-stimulated HIRcB cells, immunoprecipitation/immunoblot densitometry; assay type: cell-based, rat
Description: HIRcB cells were grown to 80% confluency in Dulbeccos's modified Eagle's medium (DMEM) containing 10% fetal calf serum (FCS) and 500 nM methotrexate, incubated in DMEM +0.1% BSA for 36 hours, and either left quiescent, or stimulated with 100 nM insulin (Sigma) for 3 minutes. Cell monolayers were rinsed with PBS, frozen with liquid nitrogen and lysed in NP-40 lysis buffer (20 mM Tris-HCl (pH 8.0), 1% NP-40, 10% glycerol, 137 mM NaCl, 1 mM CaCl2, 1 mM MgCl2, 1 mM sodium orthovanadate, 50 mM sodium fluoride, 1 mM phenylmethylsulfonylfluoride, 0.1 U/ml aprotinin, 10 μg/ml pepstatin A). HIRcB cells were immunoprecipitated with anti-αv β3 237 according to Suzuki et al., PNAS USA 83:8614 (1986), as shown in lanes 1 and 3, 237 preimmune serum in lane 2, anti-αv β3 1343 in lane 4, anti-αv β3 in lane 5, anti-α5 β1488 in lane 6 (made according to Argraves et al., J. Cell Biol. 105:1183 (1987)) and an unrelated rabbit antiserum (lane 7). Anti-αv β3 1343 was obtained from a person (Telios Pharmaceuticals, Inc.) and anti-αIIb β3 from Dr. Elisabetta Dejana (Mario Negri Institute, Milan, Italy). Three anti-α5 β1 antibodies and six unrelated polyclonal antibodies tested gave results similar to those shown in lanes 6 and 7. […] In lane 8, anti-αv β3 237 immunocomplexes from insulin-treated cells were dissociated and reprecipitated with the same antibody as follows. […]

[7] = tested on: HIRcB, NIH 3T3, NRK, HT29, UCLA-P3 and Panc-1 cells; assay: Insulin responsiveness in a panel of αv β3 and αv β5 expressing cell lines on different substrates; assay type: cell-based; conditions: panel of six cell lines
Text: A correlation between αv β3 expression and increased insulin responsiveness on vitronectin was also found in a panel of three cell lines expressing αv β3 and three lines expressing only αv β5. […] All the cell lines attached equally to vitronectin. NRK, HT29, UCLA-P3 and Panc-1 attached also to laminin and collagen, and HIRcB and NIH 3T3 cells attached to laminin. The attachment to laminin and collagen was inhibited by anti-β1 antibodies (Vuori and Ruoslahti, unpublished data, and Hayman et al., J. Cell Biol. 100:1948 (1985); Hayashi et al., J. Cell biol. 110:175 (1990); Schreiner et al., Clin. Expl. Metastasis 9:163 (1991); and Cheresh et al., supra).

## EGF: Epidermal growth factor (Boehringer Mannheim) (NSDSECPLSHDGYCLHDGVCMYIEALDKYACNCVVGYIGERCQYRDLKWWELR; UniProt P01133 971-1023, looked up)
[1]
  DNA synthesis response to EGF on vitronectin versus collagen: same response

## IGF-1: insulin-like growth factor (IGF-1), signals through IRS-1
[2]
  higher DNA synthesis in response to IGF-1 when plated on vitronectin than on collagen or laminin: about 2.3 fold

## PDGF: platelet derived growth factor, PDGF-BB (Boehringer Mannheim)
[3]
  higher DNA synthesis in response to PDGF when plated on vitronectin than on collagen: about 2.3 fold

## insulin
[4]
  higher DNA synthesis in response to insulin when plated on vitronectin than on collagen: about 2.5 fold
[5]
  difference in the DNA synthesis response on vitronectin and collagen: no difference
[6]; HIRcB cells
  time of insulin stimulation to maximal IRS-1-vitronectin receptor association: 3 min
[6]; insulin-stimulated HIRcB cells, share of IRS-1 of total cell lysate
  IRS-1 complexed with the vitronectin receptor: Five to eight
[7]
  effect of attachment to laminin on insulin responsiveness: did not increase
